In patent publication US20240182456A1, “2-((4-((S)-2-(4-CHLORO-2-FLUOROPHENYL)-2-METHYLBENZO[D][1,3]DIOXOL-4-YL)PIPERIDIN-1-YL)METHYL)-1-(((S)-OXETAN-2-YL)METHYL)-1H-IMIDAZOLE DERIVATIVES AS ACTIVATORS OF THE GLP1 RECEPTOR FOR THE TREATMENT OF OBESITY” (Novartis AG, priority 2021, published 2024):
pEC50: −log10 of the molar value. Like-named read-outs stand apart in the source and are kept apart here.

Assays:
[1] = molecular target: human GLP1R (hGLP1R) (Homo sapiens, UniProt P43220); assay: Human GLP1R cAMP agonist assay (GloSensor); type: cell-based; settings: for Emax: read-out: Emax mean; for pEC50: intracellular cAMP, mean n=3 where SEM is given
Protocol: (§1) Compounds 1 to 31 were tested in the following cellular assays that measure the intracellular cAMP concentration, beta-arrestin recruitment and receptor internalization. The cAMP is generated by the activation of GLP1R. The cAMP data obtained is shown in Table 1 (where S.E.M. is included, mean n=3 independent experiments+/−S.E.M). Beta-arrestin is recruited upon activation of GLP1R and the data obtained are shown in Table 2 (mean n=2 independent experiments, +/−S.D). The extent to which the GLP1R is internalized into the cell and away from the plasma membrane following activation is also shown in Table 2 (mean n=2 independent experiments, +/−S.D). EC50 for each assay is defined as the concentration of the compound that leads to half of the maximum response (after baseline correction). Emax is defined as the maximum response observed for the test compound, normalized to the maximum response observed for the endogenous ligand (GLP1(7-36)) to GLP1R.
Human GLP1R cAMP Agonist Assay
The agonist activity of compounds was determined using the GloSensor™ cAMP Assay (Promega Corp.), which measures changes in the intracellular concentration of cAMP after ligand activation of GPCRs. The assay uses a biosensor encoded by pGloSensor™-22F cAMP plasmid (Promega, cat #E2301) with cAMP binding domains fused to a mutant form of Photinus pyralis luciferase. Binding to cAMP causes conformational changes that promote large increases in light output, which can be measured by a luminescence detector. HEK293-SNAP-hGLP1R-GloSensor cells stably overexpressing the human GLP1 receptor (hGLP1R) and pGloSensor™-22F were seeded in white 384-well poly-D-Lysine coated plates (Greiner Bio One, cat #781945) in CO2-independent media (Gibco cat #18045-088 with 1.0% FBS, 2 mM L-glutamine, penicillin and streptomycin) and incubated overnight at 37° C., 5% CO2 with humidity. The assay was started the following morning by adding an equal volume of CO2-independent media containing 4% v/v dilution of the GloSensor substrate (Promega, cat #E1291) to all wells. The cell plate was incubated at rt for 2 h in the dark. The Biomek 7 (Beckman Coulter) instrument was used for the liquid handling steps. To generate duplicate dose response curves, 3-fold serially diluted compounds were added in to the cell assay plate to a final volume of 60 μL with final concentrations ranging from 30 μM through 0.06 μM in CO2-independent media containing 0.1% BSA, 0.5 mM IBMX and 0.4% DMSO. In the same plate and assay buffer as the tested compounds, were EC100 control wells containing GLP1 (7-36) peptide (Bachem, cat #H-6795) at a final concentration of 2 nM and also EC0 control wells containing no peptide. This plate was incubated at rt in the dark for 12 min after adding the compounds to the cells. Luminescence was then measured with an Envision 2104 Multilabel reader with “TRF Light Unit, 337 nm” (PerkinElmer) using the Ultra-Sensitive protocol setting “384-well US luminescence detector” with the 384-well luminescence aperture, 0.1 seconds per well. cAMP activity was calculated as percent of the GLP1 (7-36) EC100 control wells: [(sample signal−mean EC0 signal)/(mean EC100 of GLP1 (7-36) signal−mean EC0 signal)}*100. Curve fitting for EC50 determinations was performed in the Helios module of the software package DAVID. The 4-parameter logistic model, Hill slope was used: y=Ainf+(A0−Ainf)/(1+(x/AC50)^Hill Slope) where y is the functional response; x is the compound concentration; A0 is the minimum value (at 0 dose); Ainf is the maximum value (at infinite dose); AC50 corresponds to the point of inflection (i.e. the point on the sigmoid shaped curve halfway between A0 and Ainf). The EC50 value was represented by the AC50 value calculated from Helios in μM. Emax is the maximal activity detected within the concentration range, derived from the fitted curve. […]

[2] = molecular target: human GLP1R (Homo sapiens, UniProt P43220); assay: Human GLP1R DERET internalization assay; type: cell-based; settings: HEK293-SNAP-hGLP1R-GloSensor cells; for pEC50: mean n=2; for Emax: relative to GLP1(7-36)
Protocol: as §1
The extent to which agonists internalize the human GLP1R was determined based on an optimized version of a RealTime FRET-based ‘DERET’ (Dissociation Enhanced Resonance Energy Transfer) assay. The technology relies on labeling of the SNAP-tagged GPCR with a SNAP-Lumi-Terbium (donor fluorophore, Cisbio, cat #SSNPTBD). The compounds are incubated with the cells over-expressing the GPCR of interest in the presence of an excess of fluorescein (acceptor fluorophore). When the GPCR is on the cell surface, the donor signal is quenched by the acceptor and the donor/acceptor ratio is low. As the GPCR internalizes, the donor signal is no longer quenched, and the acceptor is no longer excited so the donor/acceptor ratio increases.
HEK293-SNAP-hGLP1R-GloSensor cells (stably overexpressing SNAP-tagged hGLP1R) were seeded overnight in white 384-well poly-D-Lysine coated plates (Greiner Bio One, cat #781945) in regular DMEM growth medium (Gibco, cat #11965-092, 10% heat-inactivated FBS, 10 mM HEPES, 1× penicillin/streptomycin, 0.5 mg/mL geneticin (Gibco, cat #10131-035) and 0.25 mg/mL hygromycin B (Invitrogen, cat #10687010). On the assay day, cell medium was removed and 100 nM SNAP-Lumi-Tb reagent was added in Opti-MEM solution. The cells were incubated at 37° C. for 1 h. Cells were washed using a plate washer in assay buffer [1×HBSS (10× Gibco, cat #14065-056), 20 mM Hepes (Gibco, cat #15630-080), 1 mM CaCl2 (Fluka, cat #21114-1L), 1 mM MgCl2 (Ambion, cat #AM9530G) pH7.4], and 20 μL buffer with 0.1% BSA was added to each well. After leaving cells to equilibrate for ˜15 min at 37° C., 10 μL of Fluorescein (sodium salt, Sigma, cat #F6377, diluted in buffer) was added at 25 μM final concentration. To generate triplicate dose response curves, compounds were serially diluted 3-fold in assay buffer, then added to the cell assay plate to a final volume of 40 μL and final top concentrations starting at 30 μM. In the same plate and assay buffer as the tested compounds, a GLP1 (7-36) peptide (Bachem, cat #H-6795) control curve was included at a final top concentration of 1 μM in order to establish EC100. EC0 wells with buffer only were also included. The plate FRET fluorescence was measured immediately using a Perkin Elmer Envision with LANCE/DELFIA D400 single mirror, excitation filter X320, and emission filters M615_203 (donor emission) and M515 (acceptor emission), and then measured every 30 min. […] Plates were kept at 37° C. between reads. Data was expressed as the ratio of donor/acceptor emissions using Microsoft Excel and plotted in GraphPad Prism. In order to determine EC50 and Emax for internalization, data was calculated and expressed as percent of the GLP1 (7-36) EC100 control wells: [(sample signal−mean EC0 signal)/(mean EC100 of GLP1 (7-36) signal−mean EC0 signal)]*100 using Microsoft Excel. Curve fitting for EC50 determinations was performed using GraphPad Prism. The 4-parameter logistic model, Hill slope was used:
Y=Bottom+(Top−Bottom)/(1+10^((Log EC50−X)*Hill Slope)), […]

[3] = HEK293-SNAP-hGLP1R-GloSensor cells, cAMP, normalized to GLP1(7-36) maximum response
[4] = HEK293-SNAP-hGLP1R-GloSensor cells

human GLP1R (hGLP1R), sequence (P43220 24-463): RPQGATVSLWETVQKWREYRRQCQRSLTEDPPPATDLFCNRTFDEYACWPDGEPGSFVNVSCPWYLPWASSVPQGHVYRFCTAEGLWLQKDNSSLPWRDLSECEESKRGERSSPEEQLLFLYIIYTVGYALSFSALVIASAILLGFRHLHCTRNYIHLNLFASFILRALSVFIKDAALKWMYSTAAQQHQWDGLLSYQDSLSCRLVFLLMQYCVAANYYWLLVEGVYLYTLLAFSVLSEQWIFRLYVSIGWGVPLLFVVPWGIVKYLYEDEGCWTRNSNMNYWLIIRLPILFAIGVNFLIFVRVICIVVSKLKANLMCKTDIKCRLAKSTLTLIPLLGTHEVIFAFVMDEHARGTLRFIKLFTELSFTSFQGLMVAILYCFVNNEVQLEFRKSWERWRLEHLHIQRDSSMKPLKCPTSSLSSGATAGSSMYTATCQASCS
human GLP1R, sequence (P43220 24-463): as above

SMILES	Emax [1, 3] [%]	pEC50 [1, 4]	pEC50 [2]	Emax [2] [%]	Emax [1] [%]
Cc1c(/C=C/C(=O)O)nc(CN2CCC(c3cccc4c3O[C@@](C)(c3ccc(Cl)cc3F)O4)CC2)n1C[C@@H]1CCO1 [Compound C-6, (E)-3-(2-((4-((S)-2-(4-chloro-2-fluorophenyl)-2-methylbenzo[d][1,3]dioxol-4-yl)piperidin-1-yl)methyl)-5-methyl-1-(((S)-oxetan-2-yl)methyl)-1H-imidazol-4-yl)acrylic acid]	105	8.17	< 4.52	5	
Cc1nc(CN2CCC(c3cccc4c3O[C@@](C)(c3ccc(Cl)cc3F)O4)CC2)n(C[C@@H]2CCO2)c1CCC(=O)O [Compound C-14, 3-(2-((4-((S)-2-(4-chloro-2-fluorophenyl)-2-methylbenzo[d][1,3]dioxol-4-yl)piperidin-1-yl)methyl)-4-methyl-1-(((S)-oxetan-2-yl)methyl)-1H-imidazol-5-yl)propanoic acid]	107	9.60	5.47	28	
C[C@]1(c2ccc(Cl)cc2F)Oc2cccc(C3CCN(Cc4nc(C(F)(F)F)c(/C=C/C(=O)O)n4C[C@@H]4CCO4)CC3)c2O1 [Compound C-8, (E)-3-(2-((4-((S)-2-(4-chloro-2-fluorophenyl)-2-methylbenzo[d][1,3]dioxol-4-yl)piperidin-1-yl)methyl)-1-(((S)-oxetan-2-yl)methyl)-4-(trifluoromethyl)-1H-imidazol-5-yl)acrylic acid]	108	10.22	< 4.52	9.5	
Cc1nc(CN2CCC(c3cccc4c3O[C@@](C)(c3ccc(Cl)cc3F)O4)CC2)n(C[C@@H]2CCO2)c1C#CC(=O)O [Compound C-22, 3-(2-((4-((S)-2-(4-chloro-2-fluorophenyl)-2-methylbenzo[d][1,3]dioxol-4-yl)piperidin-1-yl)methyl)-4-methyl-1-(((S)-oxetan-2-yl)methyl)-1H-imidazol-5-yl)propiolic acid]	102	11.40	7.74	76	
Cc1c(-c2cccc(C(=O)O)c2)nc(CN2CCC(c3cccc4c3O[C@@](C)(c3ccc(Cl)cc3F)O4)CC2)n1C[C@@H]1CCO1 [Compound C-10, 3-(2-((4-((S)-2-(4-chloro-2-fluorophenyl)-2-methylbenzo[d][1,3]dioxol-4-yl)piperidin-1-yl)methyl)-5-methyl-1-(((S)-oxetan-2-yl)methyl)-1H-imidazol-4-yl)benzoic acid]	107	9.05	< 4.52	2	
Cc1nc(CN2CCC(c3cccc4c3O[C@@](C)(c3ccc(Cl)cc3F)O4)CC2)n(C[C@@H]2CCO2)c1-c1nc(=O)o[nH]1 [Compound C-20, 3-(2-((4-((S)-2-(4-chloro-2-fluorophenyl)-2-methylbenzo[d][1,3]dioxol-4-yl)piperidin-1-yl)methyl)-4-methyl-1-(((S)-oxetan-2-yl)methyl)-1H-imidazol-5-yl)-1,2,4-oxadiazol-5(2H)-one]		9.69	< 4.52	6	104
Cc1nc(CN2CCC(c3cccc4c3O[C@@](C)(c3ccc(Cl)cc3F)O4)CC2)n(C[C@@H]2CCO2)c1CC(F)C(=O)O (stereo partly drawn) [Compound C-15, 3-(2-((4-((S)-2-(4-chloro-2-fluorophenyl)-2-methylbenzo[d][1,3]dioxol-4-yl)piperidin-1-yl)methyl)-4-methyl-1-(((S)-oxetan-2-yl)methyl)-1H-imidazol-5-yl)-2-fluoropropanoic acid]	109	9.60	< 4.52	41	
